Tested on: primary normal human dermal fibroblasts (NHDF)
Assay: Energy production (metabolic activity) by alamarBlue REDOX indicator fluorescence
Assay type: cell-based
Details: NHDF in DMEM prepared with Evian mineral water; 10 mM of each agent; 3-hour incubation, then alamarBlue 1 hour; fluorescence ex 530 nm/em 590 nm; n=8
Procedure: The effects of L-carnitine and sodium pyruvate, in mineral water, on energy production were evaluated in primary normal human dermal fibroblasts (adult). Energy production in the cell is assessed using the REDOX sensitive indicator alamarBlue™ (Alamar Biosciences, Sacramento, Calif.). The native, oxidized form of alamarBlue™ is taken up readily by cells and reduced intracellularly by the mitochondrial electron transport chain, resulting in a shift in its absorbance and fluorescence. Normal human dermal fibroblasts (NHDF), obtained from Clonetics (Biowhittaker Inc., Walkersville, Md.), were cultured in Clonetics FGM2 medium and grown to confluence in 96-well plates (Costar, Cambridge, Mass.). Culture medium was then replaced with DMEM (Life Technologies, Rockville, Md.) prepared with Evian® mineral water. After 72 hours cells were treated with 10 mM L-carnitine (Biosint USA, Larchmont, N.Y.), 10 mM sodium pyruvate (American International Chemical Inc., Natick, Mass.) or 10 mM L-carnitine in combination with 10 mM sodium pyruvate. At the end of a 3-hour incubation period, alamarBlue™ was added to each well and the plates returned to the incubator. After 1 hour the fluorescence was measured using a CytoFluor® Fluorescence Plate Reader (PerSeptive Biosystems, Framingham, Mass.) set with the following filter-combination: excitation at 530 nm and emission at 590 nm.

Compound	increase in metabolic activity [%]
C[N+](C)(C)C[C@H](O)CC(=O)[O-] [carntine, L-carnitine]	6.05
CC(=O)C(=O)[O-].[Na+] [sodium pyruvate]	2.16

— patent publication US6372791B1, “Method of promoting skin cell metabolism” (Johnson & Johnson Consumer Companies, Inc., priority 2000, dated 2002)
